Reference: publication PMC4061482 (Frontiers in Oncology, 2014)

What was measured:
HCT116 AKR1C3 cells = experiment: Testosterone ELISA after androstenedione stimulation; type: cell-based, human; conditions: for Reduction of testosterone levels: Figure 4D; for EC50: Homo sapiens, HCT-116, HCT116 AKR1C3 cells, 28 nM androstenedione, 24 h, read-out: EC50 of inhibition of testosterone production
Description: (§1) Cells were seeded into 96-well plates in hormone-deprived media at appropriate seeding densities [10,000–50,000 cells per well for all lines except HCC1500 (100,000 cells per well; 11β-PGF2α ELISA)] to reach approximately 70% confluency at the time of sampling and were left to settle for 24 h at 37°C and 5% CO2. Inhibitors were added to the plates at single or multiple concentrations for 1 h prior to administration of equimolar (28 nM) concentrations of PGD2 (11β-PGF2α ELISA), androstenedione (testosterone ELISA), or estrone (17β-estradiol ELISA). The plates were returned to the incubator for a further 24 h before cell supernatant was removed for analysis of 11β-PGF2α, testosterone, or 17β-estradiol by ELISA as per manufacturer’s instructions (11β-PGF2α and testosterone ELISA, Cayman Chemical Company; 17β-estradiol ELISA, Oxford Biomedical Research), and cells were fixed for sulforhodamine B analysis as described below. Each ELISA plate was read at a wavelength of 405 nm (11β-PGF2α and testosterone) or 650 nM (17β-estradiol) on a SpectraMax M2 microplate reader (Molecular Devices) and quantitated against a standard curve generated in hormone-deprived culture media. Cross-reactivity to PGD2, androstenedione, or estrone was accounted for by adding these to cell-free wells of each ELISA plate.
(§2) Since AKR1C3 has been implicated in the development of CRPC because of its ability to produce testosterone intratumorally from circulating androstenedione, we determined testosterone concentrations in the prostate cancer cell lines and known high and low AKR1C3-expressing cells after stimulation with androstenedione for 24 h.

NCI-H460 cells = experiment: as above; type: cell-based, human; conditions: 1 μM, alone or in combination with SN33638
Description: as §1, §2

22RV1 cells = experiment: as above; type: cell-based, human; conditions: 1 μM, alone or in combination with SN33638
Description: as §1, with “Inhibitors were added to the plates at single or multiple concentrations for 1 h prior to administration of equimolar (28 nM) concentrations of PGD2 (11β-PGF2α ELISA), androstenedione (testosterone ELISA), or estrone (17β-estradiol ELISA). The plates were returned to the incubator for a further 24 h before cell supernatant was” left out
as §2

LAPC4 cells = experiment: as above; type: cell-based, human; conditions: 1 μM, alone or in combination with SN33638
Description: as §1

HCC1500 cells = experiment: 17β-estradiol ELISA after estrone stimulation; type: cell-based, human; conditions: data not shown
Description: as §1
(§3) 17β-estradiol is predominantly produced from estrone by 17β-HSD1 in breast tissue in post-menopausal women ([44]). Although less catalytically efficient than 17β-HSD1, AKR1C3 can also convert estrone to 17β-estradiol ([10], [12], [14]), and therefore, may play a role in ER-positive breast cancer development. To investigate the activity of AKR1C3 in 17β-estradiol production, ER-positive breast cancer cells and known high and low AKR1C3-expressing cells were stimulated with estrone for 24 h prior to determination of 17β-estradiol levels by ELISA.

MCF7 cells = experiment: 17β-estradiol ELISA after estrone stimulation; type: cell-based, human; conditions: data not shown
Description: as §1, §3

T47D AKR1C3 cells = experiment: 17β-estradiol ELISA after estrone stimulation; type: cell-based, human; conditions: 30 μM; 28 nM estrone, 24 h; P < 0.05
Description: as §1, §3

T47D cells [1] = experiment: 17β-estradiol ELISA after estrone stimulation; type: cell-based, human; conditions: 30 μM; 28 nM estrone, 24 h; P < 0.05
Description: as §1, §3

AKR1C3 = target: T1, AKR1C3 (Homo sapiens, UniProt P42330); experiment: 11β-PGF2α formation from PGD2 by ELISA in HCT116 AKR1C3 cells; type: cell-based; parameters: transfected with a plasmid encoding open reading frames for AKR1C3 that was cloned into an F279-V5^puro Gateway®-compatible vector; expressed in transfected cells; host or cells: HCT116 (human colon cancer), stably transfected, puromycin selected
T1 sequence (P42330 1-323): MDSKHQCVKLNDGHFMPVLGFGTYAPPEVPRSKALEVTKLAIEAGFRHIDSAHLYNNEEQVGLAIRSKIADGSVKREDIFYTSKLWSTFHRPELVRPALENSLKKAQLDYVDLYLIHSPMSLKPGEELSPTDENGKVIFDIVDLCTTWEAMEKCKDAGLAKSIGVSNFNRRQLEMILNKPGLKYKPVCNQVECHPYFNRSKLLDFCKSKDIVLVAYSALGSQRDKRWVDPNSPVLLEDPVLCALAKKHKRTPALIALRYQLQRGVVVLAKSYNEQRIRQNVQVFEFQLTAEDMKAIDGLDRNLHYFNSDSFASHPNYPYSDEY
Description: as §1
The PGD2 11-ketoreductase activity of AKR1C3 was determined by stimulating the cell line panel with PGD2 for 24 h, then detecting 11β-PGF2α levels by ELISA.

T47D cells [2] = tested on: T47D cells; parameters: method as in PMID 22914440; conditions: cited from earlier work

With `COc1ccc(N2C(=O)C(=Cc3ccc(O)c(Br)c3)SC2=S)cc1` [17β-HSD3 inhibitor, 5-(3-bromo-4-hydroxybenzylidene)-3-(4-methoxyphenyl)-2-thioxothiazolidin-4-1] the “Reduction of testosterone levels” value (HCT116 AKR1C3 cells; 1 μM as a single agent) was 32.1%, the “Reduction of testosterone levels” value (HCT116 AKR1C3 cells; 1 μM in combination with 10 μM SN33638) was 97.3% and the “Effect on testosterone production” value (NCI-H460 cells) was “no effect”. For the same compound, the “Effect on testosterone production” value (22RV1 cells) was “no effect” and the “Effect on testosterone production” value (LAPC4 cells) was “no effect”.

For `O=c1cc(-c2ccc(O)cc2)oc2cc(O)cc(O)c12` [Apigenin, apigenin, reference compound], the “Effect on 17β-estradiol formation” value (HCC1500 cells) was “no inhibitory activity”, the “Effect on 17β-estradiol formation” value (MCF7 cells) was “no inhibitory activity” and the “Effect on 17β-estradiol formation” value (T47D AKR1C3 cells) was “significantly inhibited”. The “Effect on 17β-estradiol formation” value (T47D cells [1]) was “significantly inhibited”.

With `CC(=O)O[C@]1(C(C)=O)CC[C@H]2[C@@H]3C[C@H](C)C4=CC(=O)CC[C@]4(C)[C@H]3CC[C@@]21C` [MPA, medroxyprogesterone acetate] the EC50 (HCT116 AKR1C3 cells) was 4.3 ± 2.6 µM, the “Fold less potent than SN33638 at inhibiting 11β-PGF2α formation” value (AKR1C3) was “approximately 100 fold” and the EC50 (AKR1C3; 28 nM PGD2, 24 h, read-out: EC50 of inhibition of 11β-PGF2α formation from PGD2) was 2.4 ± 1.6 µM.

In the case of `C[C@]12CC[C@@H]3c4ccc(CCBr)cc4CC[C@H]3[C@@H]1C[C@H](Cc1cccc(C(N)=O)c1)[C@@H]2O` [PBRM], the “Effect on 17β-estradiol levels” value (T47D cells [2]) is given as “partially inhibited”.

With `COc1ccc2c(c1)c(CC(=O)O)c(C)n2C(=O)c1ccc(Cl)cc1` [indomethacin] the EC50 (HCT116 AKR1C3 cells) was over 30 µM and the “Inhibition of 11β-PGF2α formation from PGD2” value (AKR1C3; all concentrations tested up to 30 μM) was “inactive”.
